Values quoted from earlier work in patent US20110129540A1, “Polymer of acrylic or methacrylic type comprising alpha-tocopherol grafts” (Flamel Technologies, priority 2009, published 2011).
Converted amounts (≈) assume the structure as drawn.

Details: no polymer

Solubility in pure water: 50 µg/mL (≈ 123 µM)
Structure (SMILES): COc1ccccc1OCCNCC(O)COc1cccc2[nH]c3ccccc3c12 (stereo not shown) [carvedilol]
